# Experimental data from ChEMBL document CHEMBL4043256, “Discovery of N-substituted 7-azaindoles as PIM1 kinase inhibitors - Part I” (Bioorg Med Chem Lett, 2017).
# Key:
# [1] = molecular target: Serine/threonine-protein kinase pim-3 (Homo sapiens, UniProt Q86V86); experiment: Inhibition of PIM3 (unknown origin) assessed as reduction in full length human BAD phosphorylation at Ser112 residues by TR-FRET assay
# [2] = molecular target: Serine/threonine-protein kinase pim-2 (Homo sapiens, UniProt Q9P1W9); experiment: Inhibition of PIM2 (unknown origin) assessed as reduction in full length human BAD phosphorylation at Ser112 residues by TR-FRET assay
# [3] = molecular target: Cell division cycle 7-related protein kinase (Homo sapiens, UniProt O00311); experiment: Inhibition of CDC7 (unknown origin)
# [4] = molecular target: Cyclin-dependent kinase 9 (Homo sapiens, UniProt P50750)
# Cyclin-dependent kinase 9, sequence (P50750 whole entry): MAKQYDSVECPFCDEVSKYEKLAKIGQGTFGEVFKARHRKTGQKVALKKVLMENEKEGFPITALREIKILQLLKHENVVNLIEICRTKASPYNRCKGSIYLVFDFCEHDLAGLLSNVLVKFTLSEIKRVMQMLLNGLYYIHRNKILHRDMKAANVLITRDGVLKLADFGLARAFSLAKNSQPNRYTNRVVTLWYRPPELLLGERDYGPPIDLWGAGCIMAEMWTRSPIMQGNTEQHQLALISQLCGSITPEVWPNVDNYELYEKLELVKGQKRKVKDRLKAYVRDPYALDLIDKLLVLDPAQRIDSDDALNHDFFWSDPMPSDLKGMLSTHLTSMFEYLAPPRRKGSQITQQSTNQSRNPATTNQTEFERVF
# Serine/threonine-protein kinase pim-2, sequence (Q9P1W9 whole entry): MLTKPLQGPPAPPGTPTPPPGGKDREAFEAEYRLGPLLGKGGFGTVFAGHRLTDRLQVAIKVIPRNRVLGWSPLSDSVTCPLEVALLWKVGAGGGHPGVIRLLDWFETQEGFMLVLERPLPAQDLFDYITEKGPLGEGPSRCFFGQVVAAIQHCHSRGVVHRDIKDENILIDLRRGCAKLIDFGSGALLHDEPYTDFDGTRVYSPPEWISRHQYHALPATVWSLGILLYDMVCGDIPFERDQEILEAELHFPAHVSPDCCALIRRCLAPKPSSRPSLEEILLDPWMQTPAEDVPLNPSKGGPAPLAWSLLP
# Cell division cycle 7-related protein kinase, sequence (O00311 whole entry): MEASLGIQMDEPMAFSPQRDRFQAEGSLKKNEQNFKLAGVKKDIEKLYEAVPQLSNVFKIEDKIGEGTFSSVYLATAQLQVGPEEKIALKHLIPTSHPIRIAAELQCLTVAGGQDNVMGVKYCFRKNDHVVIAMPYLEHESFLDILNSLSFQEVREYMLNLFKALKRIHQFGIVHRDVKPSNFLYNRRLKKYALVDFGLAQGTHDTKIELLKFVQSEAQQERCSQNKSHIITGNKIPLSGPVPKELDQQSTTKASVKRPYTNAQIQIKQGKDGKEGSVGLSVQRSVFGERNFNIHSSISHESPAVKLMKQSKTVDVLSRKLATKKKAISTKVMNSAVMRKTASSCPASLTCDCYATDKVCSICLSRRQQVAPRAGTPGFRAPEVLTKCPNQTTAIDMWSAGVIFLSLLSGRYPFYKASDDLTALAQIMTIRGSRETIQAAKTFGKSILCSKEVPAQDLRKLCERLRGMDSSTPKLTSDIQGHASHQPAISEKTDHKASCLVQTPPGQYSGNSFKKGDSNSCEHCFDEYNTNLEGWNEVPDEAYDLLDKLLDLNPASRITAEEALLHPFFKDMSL
smiles,measurement,setting,value
Cc1c(-c2ccc(N3CCNCC3)cc2)n(C)c2nc(C(N)=O)cc(Cl)c12,IC50,[1],290 nM
same,IC50,[2],1270 nM
CN1CCC(NC(=O)c2ccc(-c3c(-c4ccc(N5CCN(C)CC5)cc4)n(C)c4nccc(Cl)c34)cc2)CC1,IC50,[1],492 nM
same,IC50,[2],872 nM
Cn1c(-c2ccc(N3CCNCC3)cc2)c(-c2ccc(CO)cc2)c2c(Cl)ccnc21,IC50,[1],10600 nM
same,IC50,[2],13800 nM
Clc1ccnc2[nH]c(-c3ccc(N4CCNCC4)cc3)cc12,IC50,[3],40 nM
same,IC50,[4],20 nM
CN(C)Cc1ccc(-c2c(-c3ccc(N4CCN(C)CC4)cc3)n(C)c3nccc(Cl)c23)cc1,IC50,[1],1400 nM
same,IC50,[2],3300 nM
CN(C)Cc1ccc(-c2c(-c3ccc(N4CCNCC4)cc3)n(C)c3nc(C(N)=O)cc(Cl)c23)cc1,IC50,[2],> 30000 nM
CN1CCN(c2ccc(-c3cc4c(Cl)cc(C(N)=O)nc4n3C)cc2)CC1,IC50,[1],400 nM
same,IC50,[2],> 30000 nM
